Structures are written as SMILES. Values after ≈ are worked out from the molar mass of the structure shown.

For the data set the following is noted: buffer; pH 7.4; 200.0 µM.
One may read the kinetic solubility as solubility judged after dilution from a stock solution rather than from solid. `Cc1ccc2cc3cc(C(=O)NC4CCCCC4)oc3nc2c1` showed a kinetic solubility of 0.7 µg/mL (≈ 2.27 µM). In the case of `CNC(=O)C12CC3CC(C1)CC(c1ccc(C)cc1)(C3)C2`, the solubility (kinetic) came to 31.8 µg/mL (≈ 112 µM). In the case of `CCCn1cnc2c(oc3ccccc32)c1=O`, the kinetic solubility is > 34.2 µg/mL.

In the case of `Cc1cccn2c(=O)c(C=O)c(N3CCC4(CC3)OCCO4)nc12`, the kinetic solubility was > 49.4 µg/mL.

`Cc1ccc(NC(=O)C2CCCN(c3ncccn3)C2)c(C)c1` (stereo unspecified) yielded a solubility (kinetic) of 8.5 µg/mL (≈ 27.4 µM). Take `CSc1ccc(S(=O)(=O)N2CCC(C(=O)NCc3ccccn3)CC2)cc1`: the kinetic solubility turned out to be 49.9 µg/mL (≈ 123 µM). `Cc1ccc(NC(=O)CCC(=O)c2cccs2)c(O)c1` returned a kinetic solubility of 24.2 µg/mL (≈ 83.6 µM). With `COc1cccc(/C=C/C(=O)OCC(=O)N2CCCC2)c1OC`, the solubility (kinetic) was > 47.9 µg/mL. Turning to `COc1ccc(CCC(=O)OCC(=O)c2ccc[nH]2)cc1OC`, the solubility (kinetic) was > 47.6 µg/mL. For the molecule `Br.CC(=O)c1sc(Nc2ccc(C)cc2)nc1C`, the kinetic solubility was > 49.1 µg/mL. `Nc1ccccc1S(=O)(=O)C(F)F` gave a solubility (kinetic) of 28.4 µg/mL (≈ 137 µM).

On to `CCOc1ccc(N=C2NC(=O)CS2)cc1`, for which the solubility (kinetic) is > 35.4 µg/mL.

Take `Cc1ccccc1OCc1ccc(C(=O)N2CC(C)OC(C)C2)o1` (stereo unspecified): the kinetic solubility worked out at 47.8 µg/mL (≈ 145 µM).

Consider `O=C(NCC1CCCO1)c1cccc(NC(=O)c2cccs2)c1` (stereo unspecified), for which the kinetic solubility was > 49.6 µg/mL. On to `COc1cc(/C=C/C(=O)OCC(=O)NC2CCCCCCC2)ccc1O`, for which the solubility (kinetic) was 36.2 µg/mL (≈ 100 µM). `Cc1ccc(Sc2ncccc2[N+](=O)[O-])cc1` showed a solubility (kinetic) of 2.8 µg/mL (≈ 11.4 µM). Regarding `O=C(NCC(=O)c1ccccc1)OCc1ccc([N+](=O)[O-])cc1`, the solubility (kinetic) was found to be 2.5 µg/mL (≈ 7.95 µM). Regarding `O=C(CNC(=O)c1ccco1)Nc1ccc(Cl)cc1`, the kinetic solubility came to 24.1 µg/mL (≈ 86.5 µM). On to `O=c1[nH]c(N2CCCCC2)nc2ncn(Cc3ccccc3)c12`, for which the solubility (kinetic) stood at 33.3 µg/mL (≈ 108 µM). In the case of `COC(=O)CSc1[nH]c2ccc(F)cc2c1[N+](=O)[O-]`, the kinetic solubility was determined as 41.8 µg/mL (≈ 147 µM). In turn, `CCOC(=O)CSc1nc2c(c(=O)[nH]1)C(C)(CC)Cc1ccccc1-2` (stereo unspecified) displayed a solubility (kinetic) of 1.5 µg/mL (≈ 4.18 µM). Then `C=CCNc1nc(NCc2ccccc2)c(C#N)c2c1CN(C)CC2`, with 3 µg/mL (≈ 9 µM). Next, `O=c1[nH]c2ccc(S(=O)(=O)NCc3ccccc3)cc2[nH]1`: 22.5 µg/mL (≈ 74.2 µM); `Cc1nc2nc(SCc3nc4ccccc4[nH]3)[nH]c2cc1Br`: 1.1 µg/mL (≈ 2.94 µM). Turning to `CC(C)(C)OC(=O)N1CCCN(C(=O)Nc2ccc(C(F)(F)F)cc2)CC1`, the kinetic solubility turned out to be 53.8 µg/mL (≈ 139 µM).

Turning to `Cn1nc(-c2ccc(Cl)cc2)cc1NC(=O)CCCC(=O)O`, the kinetic solubility was > 48.3 µg/mL. `Cc1cccc(NS(=O)(=O)c2ccc3[nH]c(=O)cc(C(=O)O)c3c2)c1` yielded a solubility (kinetic) of 48.2 µg/mL (≈ 134 µM).

As for `CN(C)CC/C=C1/c2ccc(F)cc2Sc2ccc(Cl)cc21.Cl`, the kinetic solubility came to 26.1 µg/mL. For the molecule `Cc1cc(NC(=O)c2ccco2)c(=O)n(Cc2c(F)cccc2Cl)c1`, the kinetic solubility is < 0.4 µg/mL. With `Cc1sc2ncnc(N3CCC(C(=O)Nc4ccc(OC(F)F)c(Cl)c4)CC3)c2c1C`, the kinetic solubility was found to be 5.7 µg/mL (≈ 12.2 µM). On to `Cc1nn(CC(=O)NC2CCCCC2)c(=O)c2cccn12`, for which the kinetic solubility was > 43.3 µg/mL. On to `COc1ccccc1N1CCN(C(=O)c2cccc(S(=O)(=O)Nc3ccccc3F)c2)CC1.Cl`, for which the solubility (kinetic) was > 75.9 µg/mL. With `O=C(Cc1ccccc1)NCC(=O)OCC(=O)c1ccc(F)cc1`, the solubility (kinetic) is > 49.4 µg/mL. Next, `C=CCc1c(C)nc(N2CCSCC2)[nH]c1=O`: 32 µg/mL (≈ 127 µM).

With `O=C(Cc1cccs1)NCCc1ccc(F)cc1`, the solubility (kinetic) was > 39.5 µg/mL. As to `COc1ccc(-c2csc(NC3CCCCC3)n2)c(OC)c1`, the solubility (kinetic) came to 10.3 µg/mL (≈ 32.3 µM). Regarding `CCN(CC)C(=O)c1ccc(CS(=O)(=O)Cc2ccccc2)cc1`, the kinetic solubility was > 51.8 µg/mL.

Turning to `O=C(O)CCn1c(=O)oc2cc(S(=O)(=O)N3CCCC3)ccc21`, the kinetic solubility was > 51.1 µg/mL.

`CCOc1ccc(NC(=O)NC(=O)N(C(C)C)S(C)(=O)=O)cc1` registered a kinetic solubility of 43.1 µg/mL (≈ 126 µM). Then `COC(=O)c1cc(Nc2cc(C)c3ccc(O)cc3n2)cc(C(=O)OC)c1`, with < 0.4 µg/mL; and `O=C(CN1CCN(c2ccccc2)CC1)N1CCc2ccccc21`, with 7 µg/mL (≈ 21.8 µM); and `CCOC(=O)c1c(NC(=O)C2CC2)sc2c1CC(C)(C)OC2`, with < 0.7 µg/mL.

Consider `CCn1cc(CCCC(=O)NCc2cccnc2)c2ccccc21`, for which the kinetic solubility is > 48.2 µg/mL. Turning to `CC(C)c1ccc(NC(=S)NN2CCN(C)CC2)cc1`, the solubility (kinetic) is > 43.9 µg/mL. `FC(F)(F)c1ccc(-n2cnc3ccccc32)nc1`: the solubility (kinetic) was 13.5 µg/mL (≈ 51.3 µM).

Molecule `CCOC(=O)c1c(C)nc(C)c(C(=O)OCC)c1-c1cccc(N)c1` registered a kinetic solubility of 42.1 µg/mL (≈ 123 µM). Next, `CC(OC(=O)c1cccnc1Cl)C(=O)NCc1ccccc1` (stereo unspecified): > 47.8 µg/mL.

With `COc1ccc(CNC(=O)C(C)OC(=O)c2cccs2)cc1` (stereo unspecified), the kinetic solubility was found to be 26.9 µg/mL (≈ 84.2 µM).

Consider `Cc1cc(C)c(C(=O)N2CCC3(CC2)OCCO3)c(C)c1`, for which the solubility (kinetic) was > 43.4 µg/mL. With `COc1nc(-c2ccccc2)nc(C)c1CC(=O)O`, the kinetic solubility is > 38.7 µg/mL. Then `CN(C)c1ccc(C(=O)N2CCCC2)cc1`, with > 32.7 µg/mL; and `Cc1nn(CC(=O)OCC(=O)Nc2cccc(S(N)(=O)=O)c2)c(C)c1[N+](=O)[O-]`, with > 61.7 µg/mL; and `CCO.N#CC1=C(N)Oc2c(oc(CO)cc2=O)C1c1ccccc1[N+](=O)[O-]` (stereo unspecified), with 45.9 µg/mL.

In turn, `Cc1ccc(OCC(O)CNCc2ccccc2)cc1C` (stereo unspecified) displayed a solubility (kinetic) of 36.2 µg/mL (≈ 127 µM). In the case of `O=C(c1ccc(F)cc1)C1CCN(C(=O)c2c(F)cccc2F)CC1`, the solubility (kinetic) was > 52.1 µg/mL. `CCc1cccc(C)c1NC(=O)c1ccc2c(c1)CCN2S(C)(=O)=O` showed a solubility (kinetic) of 19.3 µg/mL (≈ 53.8 µM).

With `Cc1c(C)n(C)c2ccc(C(=O)NCCCN3CCCC3)cc12`, the solubility (kinetic) was > 47 µg/mL.

As to `N#C/C(=C\c1ccccc1[N+](=O)[O-])C(=O)NCc1ccccc1`, the solubility (kinetic) is > 46.1 µg/mL. Consider `COc1cc(CCC(=O)Nc2nccs2)cc(OC)c1OC`, for which the solubility (kinetic) was > 48.4 µg/mL.

The molecule `CCOC(=O)c1c(N)c2cc([N+](=O)[O-])cnc2n1C` registered a kinetic solubility of 1.9 µg/mL (≈ 7.19 µM). The molecule `O=C(O)c1[nH]c2ccccc2c1C=NCc1ccccc1Cl` gave a solubility (kinetic) of 46.3 µg/mL (≈ 148 µM). This solubility kinetic lies about 24-fold higher than the previous one. Next, `Cc1ccc(N2C(=O)C3CCCN3C2=S)cc1Cl` (stereo unspecified): > 42.1 µg/mL; `CCN(CC)c1ccc(N=Cc2c(O)n(CCc3ccc(OC)c(OC)c3)c(=O)[nH]c2=O)cc1`: 9.5 µg/mL (≈ 20.4 µM).

Molecule `COc1cc2nc(Cl)nc(NCCO)c2cc1OC` came in with a solubility (kinetic) of 24.7 µg/mL (≈ 87.1 µM).

With `O=C(COC(=O)c1cnc(Cl)c(Cl)c1)c1ccc(F)cc1`, the solubility (kinetic) is 9.4 µg/mL (≈ 28.6 µM). For `COc1ccc(NS(=O)(=O)c2cc(C(=O)NNC(=O)c3ccncc3)ccc2OC)c(OC)c1`, the kinetic solubility is > 73 µg/mL. Then `NC(=O)C1CCN(C(=O)c2cccc3ccccc23)CC1`, with > 42.4 µg/mL; and `CS(=O)(=O)N(CC(=O)Nc1ccc(Br)cc1)C1CCCCC1`, with 55.5 µg/mL (≈ 143 µM); and `Cn1cc(CC(=O)NCc2ccc(F)cc2)c2ccccc21`, with > 44.5 µg/mL. As for `O=C(O)CCCCCNC(=O)c1ccc(C(=O)NCCCCCC(=O)O)cc1`, the kinetic solubility came out at 53.9 µg/mL (≈ 137 µM). Regarding `CC(C)(C)OC(=O)N1CCC[C@@H]1CO`, the solubility (kinetic) was > 30.2 µg/mL.

`CC(=O)NCCc1ccc(C(=O)COC(=O)c2ccco2)cc1`: the kinetic solubility was > 47.3 µg/mL.

Consider `CC(C)[C@H](NC(=O)c1ccc(C(C)(C)C)cc1)C(=O)N1CCN(Cc2ccc3c(c2)OCO3)CC1`, for which the kinetic solubility was found to be 7.9 µg/mL (≈ 16.5 µM).

Take `O=S(=O)(NCC1CCCO1)c1ccccc1` (stereo unspecified): the kinetic solubility is > 36.2 µg/mL.

`O=S(=O)(NCc1cccnc1)c1ccc2ccccc2c1` displayed a solubility (kinetic) of 41.3 µg/mL (≈ 138 µM). Then `COc1ccc(-c2nnc(SCC(=O)O)n2C)cc1OC`, with > 46.4 µg/mL; and `c1ccc(CCc2ccncc2)cc1`, with 13 µg/mL (≈ 70.9 µM); and `CC1(C)CC2CC(C)(CN2C(=O)COC(=O)c2cccnc2Cl)C1` (stereo unspecified), with > 52.6 µg/mL.

Consider `Cc1cc(C2CC(=O)Nc3ccccc3S2)c(C)s1` (stereo unspecified), for which the kinetic solubility is < 0.6 µg/mL. Turning to `Cc1onc(-c2ccccc2)c1C(=O)NN1CCOCC1`, the solubility (kinetic) was > 43.1 µg/mL. Then `Cc1nn(CCCC(=O)Nc2ccccn2)c(C)c1[N+](=O)[O-]`, with > 45.5 µg/mL; and `CCOc1ccccc1C(=O)NN1CCOCC1`, with > 37.5 µg/mL.

Consider `CCOC(=O)C1=NNC2(CC(=O)N(c3cccc(C)c3)C2=O)C1` (stereo unspecified), for which the kinetic solubility was > 47.3 µg/mL.

The molecule `CC(=O)Nc1ccc(SCc2csc(C)n2)cc1` yielded a kinetic solubility of 35.4 µg/mL (≈ 127 µM). For the molecule `CCC(=O)OCC(=O)Nc1cc([N+](=O)[O-])ccc1Cl`, the solubility (kinetic) was > 43 µg/mL. Regarding `Cc1cccc(C(=O)OCC(=O)NC(C)CCc2ccccc2)c1O` (stereo unspecified), the solubility (kinetic) was < 0.7 µg/mL. `CC(=O)Nc1ccc(S(=O)(=O)N(C)CC(=O)N2CCN(C(=O)c3ccco3)CC2)cc1`: the kinetic solubility is > 67.3 µg/mL. For the molecule `COc1ccc(NC(=O)Nc2cc(F)ccc2C)cc1`, the kinetic solubility was 1.2 µg/mL (≈ 4.37 µM).

As to `Cc1c(C(=O)N2CCc3ccccc3C2)oc2ccccc12`, the solubility (kinetic) was found to be 7.5 µg/mL (≈ 25.7 µM).

In turn, `CCCNC(=O)c1ccc(COc2ccc(Cl)cc2)o1` returned a solubility (kinetic) of 33 µg/mL (≈ 112 µM).

For `Cc1cccc(OCCn2c(=O)oc3ccc(C)cc32)c1`, the kinetic solubility was determined as 3.8 µg/mL (≈ 13.4 µM). Against the preceding molecule, the solubility kinetic is about 8.7-fold lower. Next, `CCc1sc(C(=O)NC(C)C2CCCO2)cc1Br` (stereo unspecified): 49.5 µg/mL (≈ 149 µM). On to `CC1(C)CC(NC(=S)NC2CC2)CC(C)(C)N1`, for which the kinetic solubility is > 38.3 µg/mL. As for `O=C(CCN1C(=O)C2C3C=CC(C3)C2C1=O)NC1CCCCC1` (stereo unspecified), the kinetic solubility was > 47.5 µg/mL. Turning to `CC(C)(C)c1ccc(/C=C/C(=O)NC2CCS(=O)(=O)C2)cc1` (stereo unspecified), the kinetic solubility is > 48.2 µg/mL. `Cc1noc(C)c1CSc1ccccc1C(=O)OC(C)C(N)=O` (stereo unspecified): the solubility (kinetic) was determined as 11.5 µg/mL (≈ 34.4 µM). For the molecule `Cc1ccc(-c2noc(CN(C)C(=O)c3ccoc3C)n2)cc1`, the kinetic solubility is 34.4 µg/mL (≈ 110 µM). Against the preceding molecule, the solubility kinetic is about 3-fold higher. Molecule `Cn1c(N)c(C(=O)Nc2c(Cl)cccc2Cl)sc1=S` returned a kinetic solubility of 2.4 µg/mL (≈ 7.18 µM). In the case of `Cc1ccc(C(=O)OCC(=O)NCc2ccc3c(c2)OCO3)o1`, the solubility (kinetic) is > 47.6 µg/mL.

For `O=C(NC12CC3CC(CC(C3)C1)C2)c1ccc(N2CCNCC2)c([N+](=O)[O-])c1`, the kinetic solubility was 40.8 µg/mL (≈ 106 µM). `CC(C)CN(CC(C)C)C(=O)COc1ccccc1C(N)=O`: the solubility (kinetic) is > 46 µg/mL.
